Measured values: article PMC9802118, “C25-modified rifamycin derivatives with improved activity against Mycobacterium abscessus” (PNAS Nexus, 2022)

Assays:
ArrMsm = target: T1, ArrMsm (Mycolicibacterium smegmatis, UniProt A0QRS5); assay: ITC (also nanoDSF; rpTLC ADP-ribosylation); assay type: binding
T1 construct: gene MSMEG_1221; purified wild-type enzyme, N-terminal His6 tag cleaved with C3 protease

ArrMab = target: T2, ArrMab (Mycobacteroides abscessus, UniProt B1MH05); assay: ITC (also nanoDSF; rpTLC ADP-ribosylation); assay type: binding
T2 construct: gene MAB_0591; purified wild-type enzyme, N-terminal His6 tag cleaved with C3 protease
T2 sequence (B1MH05 entry or part of it): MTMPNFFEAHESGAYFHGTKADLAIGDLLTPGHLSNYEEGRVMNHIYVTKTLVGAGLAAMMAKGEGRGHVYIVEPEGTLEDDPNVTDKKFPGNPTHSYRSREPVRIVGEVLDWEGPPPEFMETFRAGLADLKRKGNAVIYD

T1 sequence (A0QRS5 entry or part of it): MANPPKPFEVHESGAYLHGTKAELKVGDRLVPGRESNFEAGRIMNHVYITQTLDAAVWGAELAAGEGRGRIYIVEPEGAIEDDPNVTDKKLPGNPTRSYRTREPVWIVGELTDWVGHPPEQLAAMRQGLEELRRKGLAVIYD

Compound CO[C@H]1/C=C/O[C@@]2(C)Oc3c(C)c(O)c4c(O)c(c(/C=N/N5CCN(C)CC5)c(O)c4c3C2=O)NC(=O)/C(C)=C\C=C\[C@H](C)[C@H](O)[C@@H](C)[C@@H](O)[C@@H](C)[C@H](OC(C)=O)[C@@H]1C [RMP, Rifampicin] has a Kd (ArrMsm) of 290 ± 20 nM and a Kd (ArrMab) of 4800 ± 3 nM.
